Measurements taken from patent US20120029187A1, “HALOALKYLSULFONANILIDE DERIVATIVE” (Nissan Chemical Industries, Ltd., priority 2009, published 2012).

Tests used:
Format in all cases: in vivo
[1] = tested on: giant foxtail; test: Test Example 3: herbicidal effects in soil treatment; settings: dose 3.2 g/a
Summary of the method: (§1)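 Seeds were sown in sterilized diluvial soil and covered with about 1.5 cm of soil. Compounds, formulated as emulsifiable concentrates and diluted with water, were sprayed evenly over the soil surface at set doses in g/a. Herbicidal effect was scored on a rating scale three weeks later.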

[2] = tested on: posumbu knotweed; test: as above; settings: dose 3.2 g/a
Summary of the method: as §1

[3] = tested on: Italian ryegrass; test: as above; settings: dose 3.2 g/a
Summary of the method: as §1

[4] = tested on: wild oat; test: as above; settings: dose 3.2 g/a
Summary of the method: as §1

[5] = tested on: common lambsquater; test: as above; settings: dose 3.2 g/a
Summary of the method: as §1

[6] = tested on: water foxtail; test: as above; settings: dose 3.2 g/a
Summary of the method: as §1

[7] = tested on: redroot pigweed; test: as above; settings: dose 3.2 g/a
Summary of the method: as §1

[8] = tested on: barnyardgrass; test: as above; settings: dose 3.2 g/a
Summary of the method: as §1

[9] = tested on: large crabgrass; test: as above; settings: dose 3.2 g/a
Summary of the method: as §1

[10] = tested on: common chickweed; test: as above; settings: dose 3.2 g/a
Summary of the method: as §1

[11] = tested on: velvetleaf; test: as above; settings: dose 3.2 g/a
Summary of the method: as §1

[12] = tested on: common ragweed; test: as above; settings: dose 3.2 g/a
Summary of the method: as §1

[13] = tested on: transplanted rice; test: Test Example 1: preemergence treatment under submerged conditions, effect on crop; settings: dose 2.52 g/a
Summary of the method: (§2)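 Submerged conditions, 4 cm water over alluvial soil. Weeds sown and 2.5-leaf rice transplanted; compound applied preemergence to water surface, doses in g per are. Greenhouse, 25 to 30° C., three weeks, then 0–5 mortality rating.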

[14] = tested on: giant foxtail; test: Test Example 4: herbicidal effect in foliage treatment; settings: dose 3.2 g/a, three weeks after the application
Summary of the method: (§3)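 Post-emergence foliar spray of water-diluted emulsifiable concentrate at predetermined doses (g per are), applied to plants 14 days after sowing in sterile diluvial soil (greenhouse, 25 to 30° C). Visual scale rating of effect taken 3 weeks later.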

[15] = tested on: beadstraw; test: as above; settings: dose 3.2 g/a, three weeks after the application
Summary of the method: as §3

[16] = tested on: posumbu knotweed; test: as above; settings: dose 3.2 g/a, three weeks after the application
Summary of the method: as §3

[17] = tested on: Italian ryegrass; test: as above; settings: dose 3.2 g/a, three weeks after the application
Summary of the method: as §3

[18] = tested on: wild oat; test: as above; settings: dose 3.2 g/a, three weeks after the application
Summary of the method: as §3

[19] = tested on: common lambsquater; test: as above; settings: dose 3.2 g/a, three weeks after the application
Summary of the method: as §3

[20] = tested on: water foxtail; test: as above; settings: dose 3.2 g/a, three weeks after the application
Summary of the method: as §3

[21] = tested on: redroot pigweed; test: as above; settings: dose 3.2 g/a, three weeks after the application
Summary of the method: as §3

[22] = tested on: barnyardgrass; test: as above; settings: dose 3.2 g/a, three weeks after the application
Summary of the method: as §3

[23] = tested on: large crabgrass; test: as above; settings: dose 3.2 g/a, three weeks after the application
Summary of the method: as §3

[24] = tested on: common chickweed; test: as above; settings: dose 3.2 g/a, three weeks after the application
Summary of the method: as §3

[25] = tested on: velvetleaf; test: as above; settings: dose 3.2 g/a, three weeks after the application
Summary of the method: as §3

[26] = tested on: common ragweed; test: as above; settings: dose 3.2 g/a, three weeks after the application
Summary of the method: as §3

[27] = tested on: ducksalad; test: Test Example 1: herbicidal effects in preemergence treatment under submerged conditions; settings: dose 2.52 g/a
Summary of the method: as §2

[28] = tested on: barnyardgrass; test: as above; settings: dose 2.52 g/a
Summary of the method: as §2

[29] = tested on: bulrush; test: as above; settings: dose 2.52 g/a
Summary of the method: as §2

[30] = tested on: ducksalad; test: Test Example 2: herbicidal effects during the vegetation period under submerged conditions; settings: treatment during the vegetation period under submerged conditions; dose 2.52 g/a
Summary of the method: (§4)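 Barnyardgrass, bulrush and ducksalad were co-sown in alluvial soil flooded to 4 cm and grown in a greenhouse at 25 to 30° C. At the 1- or 2-leaf stage, water-diluted emulsifiable concentrates went onto the water surface at set doses (g/a). Herbicidal effect was scored three weeks later on a graded scale.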

[31] = tested on: barnyardgrass; test: as above; settings: treatment during the vegetation period under submerged conditions; dose 2.52 g/a
Summary of the method: as §4

[32] = tested on: bulrush; test: as above; settings: treatment during the vegetation period under submerged conditions; dose 2.52 g/a
Summary of the method: as §4

For O=C1CCCON1Cc1ccccc1N(C(=O)OCCCl)S(=O)(=O)C(F)(F)F [III-14], the “herbicidal effect, E: giant foxtail” value [1] was 5 (mortality of 90% or above (nearly complete death)), the “herbicidal effect, M: posumbu knotweed” value [2] was 3 (mortality of at least 40% and less than 70%) and the “herbicidal effect, H: Italian ryegrass” value [3] was 3 (mortality of at least 40% and less than 70%). For the same molecule, the “herbicidal effect, F: wild oat” value [4] was 0 (mortality of less than 5% (almost ineffective)), the “herbicidal effect, L: common lambsquater” value [5] was 0 (mortality of less than 5% (almost ineffective)) and the “herbicidal effect, G: water foxtail” value [6] was 5 (mortality of 90% or above (nearly complete death)). The “herbicidal effect, K: redroot pigweed” value [7] was 1 (mortality of at least 5% and less than 20%), the “herbicidal effect, A: barnyardgrass” value [8] was 5 (mortality of 90% or above (nearly complete death)) and the “herbicidal effect, D: large crabgrass” value [9] was 5 (mortality of 90% or above (nearly complete death)). For the same molecule, the “herbicidal effect, N: common chickweed” value [10] was 5 (mortality of 90% or above (nearly complete death)), the “herbicidal effect, I: velvetleaf” value [11] was 5 (mortality of 90% or above (nearly complete death)) and the “herbicidal effect, J: common ragweed” value [12] was 5 (mortality of 90% or above (nearly complete death)). The “a: transplanted rice, effect on crop (evaluation scale 0-5)” value [13] was 3 (mortality of at least 40% and less than 70%), the “E: giant foxtail, herbicidal effect” value [14] was 5 (mortality of 90% or above (nearly complete death)) and the “O: beadstraw, herbicidal effect” value [15] was 5 (mortality of 90% or above (nearly complete death)). The “M: posumbu knotweed, herbicidal effect” value [16] was 0 (mortality of less than 5% (almost ineffective)), the “H: Italian ryegrass, herbicidal effect” value [17] was 4 (mortality of at least 70% and less than 90%) and the “F: wild oat, herbicidal effect” value [18] was 0 (mortality of less than 5% (almost ineffective)). For the same molecule, the “L: common lambsquater, herbicidal effect” value [19] was 0 (mortality of less than 5% (almost ineffective)), the “G: water foxtail, herbicidal effect” value [20] was 5 (mortality of 90% or above (nearly complete death)) and the “K: redroot pigweed, herbicidal effect” value [21] was 3 (mortality of at least 40% and less than 70%). The “A: barnyardgrass, herbicidal effect” value [22] was 5 (mortality of 90% or above (nearly complete death)), the “D: large crabgrass, herbicidal effect” value [23] was 5 (mortality of 90% or above (nearly complete death)) and the “N: common chickweed, herbicidal effect” value [24] was 4 (mortality of at least 70% and less than 90%). For the same molecule, the “I: velvetleaf, herbicidal effect” value [25] was 5 (mortality of 90% or above (nearly complete death)), the “J: common ragweed, herbicidal effect” value [26] was 4 (mortality of at least 70% and less than 90%) and the “C: ducksalad, herbicidal effect (evaluation scale 0-5)” value (shortened to “C: ducksalad, herbicidal effect”) [27] was 5 (mortality of 90% or above (nearly complete death)). For the same molecule, the “A: barnyardgrass, herbicidal effect (evaluation scale 0-5)” value [28] was 5 (mortality of 90% or above (nearly complete death)), the “B: bulrush, herbicidal effect (evaluation scale 0-5)” value (shortened to “B: bulrush, herbicidal effect”) [29] was 5 (mortality of 90% or above (nearly complete death)) and the “C: ducksalad, herbicidal effect” value [30] was 5 (mortality of 90% or above (nearly complete death)). The “A: barnyardgrass, herbicidal effect (evaluation scale 0-5)” value [31] was 5 (mortality of 90% or above (nearly complete death)) and the “B: bulrush, herbicidal effect” value [32] was 5 (mortality of 90% or above (nearly complete death)).
In the case of CCN1COCN(Cc2ccccc2NS(=O)(=O)C(F)(F)F)C1=O [IV-5], the “herbicidal effect, E: giant foxtail” value [1] is reported as 5 (mortality of 90% or above (nearly complete death)), the “herbicidal effect, M: posumbu knotweed” value [2] is reported as 4 (mortality of at least 70% and less than 90%) and the “herbicidal effect, H: Italian ryegrass” value [3] is reported as 4 (mortality of at least 70% and less than 90%). The “herbicidal effect, F: wild oat” value [4] was 2 (mortality of at least 20% and less than 40%), the “herbicidal effect, L: common lambsquater” value [5] was 3 (mortality of at least 40% and less than 70%) and the “herbicidal effect, G: water foxtail” value [6] was 5 (mortality of 90% or above (nearly complete death)). The “herbicidal effect, K: redroot pigweed” value [7] was 3 (mortality of at least 40% and less than 70%), the “herbicidal effect, A: barnyardgrass” value [8] was 5 (mortality of 90% or above (nearly complete death)) and the “herbicidal effect, D: large crabgrass” value [9] was 5 (mortality of 90% or above (nearly complete death)). The “herbicidal effect, N: common chickweed” value [10] was 5 (mortality of 90% or above (nearly complete death)), the “herbicidal effect, I: velvetleaf” value [11] was 5 (mortality of 90% or above (nearly complete death)) and the “herbicidal effect, J: common ragweed” value [12] was 0 (mortality of less than 5% (almost ineffective)). For the same molecule, the “a: transplanted rice, effect on crop (evaluation scale 0-5)” value [13] was 0 (mortality of less than 5% (almost ineffective)), the “E: giant foxtail, herbicidal effect” value [14] was 4 (mortality of at least 70% and less than 90%) and the “O: beadstraw, herbicidal effect” value [15] was 3 (mortality of at least 40% and less than 70%). The “M: posumbu knotweed, herbicidal effect” value [16] was 0 (mortality of less than 5% (almost ineffective)), the “H: Italian ryegrass, herbicidal effect” value [17] was 3 (mortality of at least 40% and less than 70%) and the “F: wild oat, herbicidal effect” value [18] was 0 (mortality of less than 5% (almost ineffective)). For the same molecule, the “L: common lambsquater, herbicidal effect” value [19] was 3 (mortality of at least 40% and less than 70%), the “G: water foxtail, herbicidal effect” value [20] was 5 (mortality of 90% or above (nearly complete death)) and the “K: redroot pigweed, herbicidal effect” value [21] was 0 (mortality of less than 5% (almost ineffective)). The “A: barnyardgrass, herbicidal effect” value [22] was 5 (mortality of 90% or above (nearly complete death)), the “D: large crabgrass, herbicidal effect” value [23] was 4 (mortality of at least 70% and less than 90%) and the “N: common chickweed, herbicidal effect” value [24] was 4 (mortality of at least 70% and less than 90%). For the same molecule, the “I: velvetleaf, herbicidal effect” value [25] was 5 (mortality of 90% or above (nearly complete death)), the “J: common ragweed, herbicidal effect” value [26] was 3 (mortality of at least 40% and less than 70%) and the “C: ducksalad, herbicidal effect” value [27] was 4 (mortality of at least 70% and less than 90%). The “A: barnyardgrass, herbicidal effect (evaluation scale 0-5)” value [28] was 5 (mortality of 90% or above (nearly complete death)), the “B: bulrush, herbicidal effect” value [29] was 5 (mortality of 90% or above (nearly complete death)) and the “C: ducksalad, herbicidal effect” value [30] was 5 (mortality of 90% or above (nearly complete death)). The “A: barnyardgrass, herbicidal effect (evaluation scale 0-5)” value [31] was 5 (mortality of 90% or above (nearly complete death)) and the “B: bulrush, herbicidal effect” value [32] was 5 (mortality of 90% or above (nearly complete death)).
